Values of other authors as cited in patent publication US20140186466A1, “NEUTRACEUTICAL FORMULATION FOR TREATMENT OF DIABETES” (Creative Medical Health Inc., priority 2012, published 2014).
Where two headings read alike, the source gives them in different places. Blank lines part the entries; values can stand above or below the compound they belong to.

Assays:
[1] = test system: patients with diabetes; conditions: 500 mg or 1000 mg three times a day, 52 weeks
[2] = test system: tissue uptake of glucose; conditions: healthy patients and patients with type 2 diabetes
[3] = test system: type 1 diabetic patients; conditions: 51 type 1 diabetic patients; 600 mg once daily, 5 weeks
[4] = test system: patients with type 2 diabetes; conditions: 57 patients, 300 mg daily or placebo, eight weeks
[5] = test system: peripheral neuropathy; conditions: intravenously 600 mg/day over 3 weeks
[6] = test system: mesenteric vascular bed; conditions: STZ diabetic rats; 10 g/L in drinking water, 8 weeks; intact and denuded endothelium
[7] = test system: streptozotocin diabetic rats; conditions: 10 g/l in drinking water, eight weeks
[8] = test system: skin microvasculature of diabetic rats; conditions: streptozotocin-diabetic male Wistar rats; 10 g/l in drinking water
[9] = test system: patients with hypertension; conditions: 60 patients with hypertension; 20 mmol/d, 8 weeks
[10] = test system: diabetic rat brains; conditions: 0.6 mg/mL in drinking water, 4 weeks
[11] = test system: ischemia-reperfusion insult in rats; conditions: 10 mg chromium/kg diet for six weeks
[12] = test system: diabetic rats
[13] = test system: Streptozotocin-induced diabetic animals; conditions: 4 weeks
[14] = test system: inflammatory pathways involved in diabetic nephropathy; conditions: rat model; 22 micrograms in water for 12 weeks (8 mcg/day)
[15] = test system: HIV-positive subjects; conditions: 1000 µg/day, eight weeks
[16] = test system: diabetic rats; conditions: 100 mg/kg, 60 days
[17] = target: dipeptidyl peptidase-IV (Homo sapiens, UniProt P27487)
[18] = in vivo
[19] = test system: patients with diabetes; conditions: 2000 IU/daily for 18 months
[20] = diabetic rats, 1 mg/kg body weight

Sequence of dipeptidyl peptidase-IV (P27487 whole entry, species assumed): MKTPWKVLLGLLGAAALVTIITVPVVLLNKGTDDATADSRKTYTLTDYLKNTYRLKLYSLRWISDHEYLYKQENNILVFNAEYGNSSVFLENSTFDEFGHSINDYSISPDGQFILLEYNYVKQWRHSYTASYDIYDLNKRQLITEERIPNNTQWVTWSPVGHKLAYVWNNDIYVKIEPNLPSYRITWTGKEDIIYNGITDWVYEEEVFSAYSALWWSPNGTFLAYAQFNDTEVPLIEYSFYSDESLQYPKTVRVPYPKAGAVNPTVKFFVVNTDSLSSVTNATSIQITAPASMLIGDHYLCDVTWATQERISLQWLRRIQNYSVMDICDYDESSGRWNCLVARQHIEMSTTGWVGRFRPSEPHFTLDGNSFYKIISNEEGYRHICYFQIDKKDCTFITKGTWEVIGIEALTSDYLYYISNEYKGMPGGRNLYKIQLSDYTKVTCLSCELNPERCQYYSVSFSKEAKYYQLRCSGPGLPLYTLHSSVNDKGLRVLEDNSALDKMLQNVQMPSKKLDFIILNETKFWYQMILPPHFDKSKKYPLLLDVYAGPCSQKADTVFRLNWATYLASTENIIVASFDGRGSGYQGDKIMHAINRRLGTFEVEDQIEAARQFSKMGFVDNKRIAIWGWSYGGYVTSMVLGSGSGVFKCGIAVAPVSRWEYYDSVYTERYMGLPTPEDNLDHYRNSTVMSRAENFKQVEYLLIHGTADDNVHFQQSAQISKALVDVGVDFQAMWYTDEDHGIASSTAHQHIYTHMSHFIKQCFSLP

Compound: CC(=O)O[C@H](CC(=O)[O-])C[N+](C)(C)C [acetyl-L-carnitine]
- nerve fiber regeneration [1]: improvements
- neuropathic pain [1]: symptomatic relief
- tissue uptake of glucose [2]: dose-dependent effects

Compound: O=C(O)CCCCC1CCSS1 (stereo not drawn) [alpha lipoic acid]
- measures of platelet reactivity [3]: reduced
- fasting blood glucose levels [4]: reduced
- neuropathic pain [5]: clinically relevant reduction

Compound: O=S(=O)([O-])[O-].[Mg+2] [magnesium sulfate]
- mean perfusion pressure of mesenteric vascular bed [6]: decrease
- plasma glucose ([7]; STZ 40 mg/kg i.v. diabetic rats): to normal levels
- high density lipoprotein (HDL) ([7]; STZ diabetic rats): to normal levels
- low density lipoprotein (LDL) ([7]; STZ diabetic rats): to normal levels
- mesenteric fat/body weight ratio ([7]; STZ diabetic rats): reductions
- systolic blood pressure ([7]; STZ diabetic rats): to normal levels
- total cholesterol ([7]; STZ diabetic rats): to normal levels
- triglyceride ([7]; STZ diabetic rats): to normal levels
- very low density lipoprotein (VLDL) ([7]; STZ diabetic rats): to normal levels
- endothelial relaxation stimulated with acetylcholine (Ach) or sodium nitroprusside (SNP) [8]: enhanced

Compound: [O]=[Mg] [magnesium oxide]
- ambulatory BP reduction, first value of the pair [9]: 2.5 mm Hg
- ambulatory BP reduction, second value of the pair [9]: 1.4 mm Hg
- home BP decrease, first value of the pair [9]: 2.0 mm Hg
- home BP decrease, second value of the pair [9]: 1.4 mm Hg
- office BP fall, first value of the pair [9]: 3.7 mm Hg
- office BP fall, second value of the pair [9]: 1.7 mm Hg

Compound: [Na+].[Na+].[Na+].[O]=[V]([O-])([O-])[O-] [sodium orthovanadate]
- ischemic injury in diabetic rat brains [10]: significantly reduced
- neurobehavioral function [10]: improved

Compound: chromium picolinate
- myocardial contractility and relaxation following ischemia-reperfusion insult [11]: recovery
- elevated hepatic and cerebral free fatty acids and malondialdehyde ([12]; high dose 13.20 μg Cr kg(−1) day(−1), relative to control (non-diabetic) levels): nearly normalized
- elevated hepatic and cerebral free fatty acids and malondialdehyde ([12]; low (human equivalent) dose 2.90 μg Cr kg(−1) day(−1)): significantly reduced
- plasma glucose levels ([13]; 1 mg/kg body weight daily): lowered
- weight loss in diabetic animals ([13]; 1 mg/kg body weight daily): increased
- glycogen content in the livers ([13]; 1 mg/kg body weight daily, to near control levels): normalized
- action of insulin [13, 20]: potentiate
- plasma cholesterol levels [13, 20]: lower
- plasma triglyceride levels [13, 20]: lower
- activity of inflammatory pathways involved in diabetic nephropathy [14]: reducing the activity
- mean rate of glucose disposal after treatment ([15]; eight HIV-positive subjects on antiretroviral therapy, before 4.41, range 3.19-12.78, p=0.03): 6.51 mg/kg LBM/min
- increase of mean rate of glucose disposal ([15]; eight HIV-positive subjects): 25%

Compound: O=S(=O)([O-])[O-].[O]=[V+2] [vanadyl sulfate]
- blood glucose levels [16]: lower
- serum antioxidant enzyme levels in muscle tissue [16]: decrease

- dipeptidyl peptidase-IV activity [17]: inhibition
Compound: CN(C)C(=N)N=C(N)N [metformin, Metformin]
- glucose utilization [18]: increased
- leptin concentrations [18]: reduction

Compound: C=C1CC[C@H](O)C/C1=C/C=C1\CCC[C@]2(C)[C@@H]([C@H](C)CCCC(C)C)CC[C@@H]12 [Vitamin D3]
- serum lipid profiles [19]: beneficial effects
